Assay results taken from PubChem BioAssay (NCI).
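Briefly, cells in 96-well plates were exposed to five compound concentrations for 48 h, and endpoints were estimated by linear interpolation. Here, GI50 denotes the concentration required for 50% inhibition of growth. TGI: total growth inhibition.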

What was measured:
Assay in all cases: NCI tumour cell line growth inhibition, 48 h
[1] = system: 786-0 renal
[2] = system: A498 renal
[3] = system: HT29 colon
[4] = system: MOLT-4 leukemia
[5] = system: RPMI-8226 leukemia
[6] = system: SR leukemia
[7] = system: SW-620 colon
[8] = system: U251 CNS
[9] = system: HCC-2998 colon
[10] = system: RXF 393 renal

Compound | TGI [1] [µM] | TGI [2] [µM] | TGI [3] [µM] | TGI [4] [µM] | TGI [5] [µM] | TGI [6] [µM] | TGI [7] [µM] | TGI [8] [µM] | TGI [9] [µM] | TGI [10] [µM] | GI50 [1] [µM] | GI50 [2] [µM] | GI50 [9] [µM] | GI50 [3] [µM] | GI50 [5] [µM] | GI50 [10] [µM] | GI50 [7] [µM] | GI50 [8] [µM] | GI50 [4] [µM] | GI50 [6] [µM]
Cc1[nH]c2ccccc2c1-c1cc(-c2cc(-c3c(C)[nH]c4ccccc34)nc(N)n2)nc(N)n1 | > 100 | > 100 | > 100 | > 100 | > 100 | > 100 | > 100 | > 100 | – | – | – | – | – | – | – | – | – | – | – | –
O=C(O)c1cc2ccccc2c(N=Nc2cc(C(F)(F)F)ccc2Cl)c1O | > 100 | – | > 100 | > 100 | > 100 | > 100 | > 100 | > 100 | > 100 | > 100 | – | – | – | – | – | – | – | – | – | –
CC(C)C1CC2C(=O)N(c3ccccc3)C(=O)C2c2[nH]c3ccccc3c21 (stereo not given) | > 100 | > 100 | > 100 | > 100 | > 100 | – | > 100 | 41.1 | > 100 | 57.4 | – | – | – | – | – | – | – | – | – | –
CN1C(c2ccccc2)CS(=O)(=O)CS1(=O)=O (stereo not given) | > 100 | > 100 | > 100 | – | – | – | > 100 | > 100 | > 100 | > 100 | – | – | – | – | – | – | – | – | – | –
COC(=O)c1c(O)c([N+](=O)[O-])cc2c1c1c(n2Cc2ccccc2)C(=O)c2ccccc2C1=O | 59.6 | 49 | > 100 | – | 24.9 | – | 11.4 | > 100 | 23.2 | 61.9 | 15.7 | 18.5 | 11.2 | 18.9 | 2.32 | 12.3 | 2.97 | 31 | – | –
Nc1nc2cc3ccc(C4CC(O)C(CO)O4)cc3cc2c(=O)[nH]1 (stereo not given) | > 100 | > 100 | > 100 | > 100 | > 100 | – | > 100 | > 100 | > 100 | > 100 | > 100 | 26.8 | > 100 | > 100 | > 100 | > 100 | > 100 | > 100 | > 100 | –
CS(=O)(=O)Nc1cccc(-c2cc(-c3ccccc3Cl)c(C#N)c(N)n2)c1 | 14.4 | 14.4 | 11.9 | > 51.5 | 27.5 | – | 16.7 | 15.4 | 8.52 | 2.27 | 0.803 | 0.669 | 1.36 | 0.389 | 0.702 | 0.328 | 0.425 | 0.531 | 0.894 | –
OC(COc1ccc(F)cc1)Cn1cnc2c(Cl)ncnc21 (stereo not given) | > 100 | > 100 | > 100 | > 100 | > 100 | – | > 100 | > 100 | 42.3 | 44.4 | > 100 | > 100 | 19.3 | > 100 | 39.7 | 1.78 | 72.9 | > 100 | 32.5 | –
O=Cc1ccc(-c2ccc(-c3nc4ccccc4o3)cc2)s1 | > 100 | – | > 100 | > 100 | – | 47.7 | > 100 | 80.8 | > 100 | > 100 | 31.9 | – | 45.2 | 53.8 | – | 49.4 | 71.2 | 29.1 | 21.6 | 15.3
NC(=O)c1coc(C2OC(CO)C(O)C2O)n1 (stereo not given) | > 100 | > 100 | > 100 | > 100 | > 100 | > 100 | > 100 | > 100 | > 100 | – | – | – | – | – | – | – | – | – | – | –
O/N=C1/C(=C/c2ccc(Oc3ccccc3)cc2)CCCC1C(NO)c1ccc(Oc2ccccc2)cc1 (stereo not given) | > 100 | – | 30.5 | 33.2 | 76.1 | – | > 100 | > 100 | > 100 | 52.2 | – | – | – | – | – | – | – | – | – | –
CCOC(=O)C(=O)Nc1ccc(Cl)cc1C | > 100 | – | > 100 | > 100 | > 100 | > 100 | > 100 | > 100 | > 100 | > 100 | – | – | – | – | – | – | – | – | – | –
COC(=O)CCC(=O)Nc1cc(Cl)ccc1Cl | > 100 | – | > 100 | > 100 | > 100 | > 100 | > 100 | > 100 | > 100 | 65.8 | – | – | – | – | – | – | – | – | – | –
CN(C)/N=C(/c1nc2ccc([N+](=O)[O-])cc2[nH]c1=O)C(O)c1ccco1 (stereo not given) | > 100 | – | > 100 | > 100 | > 100 | > 100 | > 100 | > 100 | > 100 | > 100 | – | – | – | – | – | – | – | – | – | –
CC(=O)c1ccc2c(ccc(=O)n2C)c1 | > 100 | > 100 | > 100 | > 100 | > 100 | – | > 100 | > 100 | > 100 | – | – | – | – | – | – | – | – | – | – | –
O=C(c1ccccc1)c1oc2ccc(Br)cc2c1-c1cnn(-c2ccccc2)c1 | > 100 | – | > 100 | > 100 | > 100 | – | – | – | > 100 | > 100 | – | – | – | – | – | – | – | – | – | –
O=C(CC1(O)C(=O)Nc2ccccc21)c1ccco1 (stereo not given) | > 100 | > 100 | > 100 | > 100 | > 100 | – | > 100 | – | – | > 100 | – | – | – | – | – | – | – | – | – | –
S=C(Nc1ccc(Cl)cc1)Nc1ccc(-c2nc3ccccc3o2)cc1 | > 100 | – | 41.8 | > 100 | 23.2 | 52.3 | 60.3 | 29.7 | 26.7 | 30.7 | 26.3 | – | 13.8 | 17.4 | 3.8 | 10.9 | 19.8 | 14.1 | 18.5 | 19
CCN1C2=NCCN2S(=O)(=O)c2ccccc21 | > 100 | > 100 | > 100 | > 100 | – | – | > 100 | > 100 | > 100 | > 100 | – | – | – | – | – | – | – | – | – | –
